From patent publication US9573887B2, “Naphthalene derivative” (Daito Chemix Corporation, priority 2010, dated 2017) come the findings set out here.

For this assay, the target named is T1, Mouse VCP (Mus musculus, UniProt Q01853).
T1 construct: histidine tag (N); made in house; host or cells: Sf-9 insect cells (baculovirus vector pVL1392)
Nature of the assay: ATPase activity of purified His-tagged VCP, [γ-32P]ATP, liberated phosphate by liquid scintillation. Format: biochemical. Here is the method:
In one aspect, the effect of VCP regulators for regulating ATPase activity is determined, for example by the following exemplary assay. Mouse VCP cDNA (the amino acid sequence is completely identical among mouse, rat and human) is added with a DNA sequence corresponding to a histidine tag at the amino-terminal, subcloned into a baculovirus vector pVL1392 (BD Bioscience), and expressed in Sf-9 insect cells. The protein is purified with a nickel column. After the purification the concentration of the protein is adjusted to 0.25-0.5 μg/ml and the protein is stored in a solution containing 50 mM TrisCl pH 8.0, 5 mM EDTA, 10% glycerol, and 15 mM DTT at 4° C. 500 ng of the purified VCP is mixed with 100 μM [γ-^32P]ATP (18.5 GBq/mmol) and the test substance in 20 μL of ATPase buffer (20 mM HEPES (pH7.4), 50 mM KCl, 5 mM MgCl2, 15 mM DTT), and incubated at 37° C. for 10 minutes. The enzyme reaction is stopped with addition of 200 μL of an ice-cold solution containing 7% TCA and 1 mM K2HPO4. 50μ of a solution containing 3.75% ammonium molybdate and 0.02M tungstate silicic/3 N H2SO4 is added, followed by 300 μL of n-butylacetic acid, and then the liberated phosphate is extracted into the organic layer. The reaction tube is centrifuged for 5 minutes at 20,000 g to separate the aqueous layer and the organic layer, 200 μL of the organic layer is taken, and the beta ray radiated from the liberated phosphate is quantified with liquid scintillation counter. By measuring the ATPase activity in the presence of the test substance at various concentrations, ATPase inhibitory activity of the test substance is measured.
Mouse VCP cDNA was added with a DNA sequence corresponding to histidine tag at the amino-terminal, subcloned into a baculovirus vector pVL1392 (BD Bioscience), and expressed in Sf-9 insect cells. The protein was purified with a nickel column (GE Healthcare). The concentration of the protein was adjusted to 0.25-0.5 μg/ml and the protein was stored in a solution containing 50 mM TrisCl pH 8.0, 5 mM EDTA, 10% glycerol, and 15 mM DTT.
The ATPase activity was determined as follows. 500 ng of the purified VCP was mixed with 100 μM [γ-32P]ATP (18.5 GBq/mmol) and the test substance in 20 μL of ATPase buffer (20 mM HEPES (pH7.4), 50 mM KCl, 5 mM MgCl2, 15 mM DTT), and incubated at 37° C. for 10 minutes.
The enzyme reaction was stopped with addition of 200 μL of an ice-cold solution containing 7% TCA and 1 mM K2HPO4. 50μ of a solution containing 3.75% ammonium molybdate and 0.02M tungstate silicic/3 NH2SO4 was added, followed by 300 μL of n-butylacetic acid, and then the liberated phosphate was extracted into the organic layer. The reaction tube was centrifuged for 5 minutes at 20,000 g to separate the aqueous layer and the organic layer, 200 μL of the organic layer was taken, and the beta ray radiated from the liberated phosphate was quantified with liquid scintillation counter.
By measuring the ATPase activity in the presence of the test substance at various concentrations, ATPase inhibitory activity of the test substance was measured. IC50 of the each test substance was calculated by applying the measured values to the equation below using GraphPad Prism (GraphPad Software).

The mark [1] stands for this setting: compounds of Examples, ATPase inhibitory activity, 500 ng VCP, 100 μM ATP, 37° C., 10 minutes.

pIC50: −log10 of the molar value. Structures can show the parent of a compound that is named as a salt.

T1 sequence (Q01853 whole entry): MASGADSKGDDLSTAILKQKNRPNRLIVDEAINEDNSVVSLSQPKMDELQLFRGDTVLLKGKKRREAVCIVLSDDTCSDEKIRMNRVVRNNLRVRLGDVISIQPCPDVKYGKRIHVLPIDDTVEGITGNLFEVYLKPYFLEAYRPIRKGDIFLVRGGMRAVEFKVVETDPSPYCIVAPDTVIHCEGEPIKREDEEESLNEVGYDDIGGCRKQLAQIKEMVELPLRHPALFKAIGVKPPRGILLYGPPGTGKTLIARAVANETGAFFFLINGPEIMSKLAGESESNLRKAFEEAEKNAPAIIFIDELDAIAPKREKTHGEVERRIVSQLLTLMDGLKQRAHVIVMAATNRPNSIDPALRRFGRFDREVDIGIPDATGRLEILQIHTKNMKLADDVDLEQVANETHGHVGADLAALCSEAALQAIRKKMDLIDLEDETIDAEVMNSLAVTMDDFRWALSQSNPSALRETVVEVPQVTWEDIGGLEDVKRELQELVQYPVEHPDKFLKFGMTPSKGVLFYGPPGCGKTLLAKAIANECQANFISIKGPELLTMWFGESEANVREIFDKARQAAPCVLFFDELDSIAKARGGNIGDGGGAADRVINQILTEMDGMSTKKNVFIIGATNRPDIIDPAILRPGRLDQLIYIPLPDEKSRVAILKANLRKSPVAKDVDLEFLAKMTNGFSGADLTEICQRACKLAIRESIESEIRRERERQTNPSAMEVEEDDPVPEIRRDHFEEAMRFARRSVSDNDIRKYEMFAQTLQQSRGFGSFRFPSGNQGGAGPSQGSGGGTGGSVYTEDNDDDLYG

Usually pIC50 stands for the negative decadic logarithm of the IC50, by convention in mol/L. For `Cc1cc(F)ccc1-c1ncc(/N=N/c2cc(S(=O)(=O)O)c3ccccc3c2N)cc1C` [Example 79, 4-amino-3-[6-(4-fluoro-2-methylphenyl)-5-methylpyridine-3-ylazo]naphthalene-1-sulfonic acid sodium salt], the negative logarithm of the IC50 (pIC50) under setting [1] is 6.10. With `Nc1c(/N=N/c2ccc(-c3cccc4c3Sc3ccccc3S4)nc2)cc(S(=O)(=O)O)c2ccccc12` [Example 76, 4-amino-3-(6-thianthrene-1-ylpyridine-3-ylazo)naphthalene-1-sulfonic acid sodium salt], the negative logarithm of the IC50 (pIC50) under setting [1] was 5.85. On to `CC(C)Oc1ccc(-c2ccc(/N=N/c3cc(S(=O)(=O)O)c4ccccc4c3N)cn2)cc1` [Example 28, 4-amino-3-[6-(4-isopropoxyphenyl)pyridine-3-ylazo]naphthalene-1-sulfonic acid sodium salt], for which the pIC50 under setting [1] is 6.38. Turning to `Nc1c(/N=N/c2ccc(OCc3ccncc3)cc2)cc(S(=O)(=O)O)c2ccccc12` [Example 132, 4-amino-3-[4-(pyridine-4-ylmethoxy)phenylazo]naphthalene-1-sulfonic acid sodium salt], the pIC50 under setting [1] is 6.87.

For `COc1cccc(-c2ccc(/N=N/c3cc(S(=O)(=O)O)c4ccccc4c3N)cn2)c1` [Example 32, 4-amino-3-[6-(3-methoxyphenyl)pyridine-3-ylazo]naphthalene-1-sulfonic acid sodium salt], the pIC50 under setting [1] is 6.37. For the compound `Nc1c(/N=N/c2cccc(OCc3ccncc3)c2)cc(S(=O)(=O)O)c2ccccc12` [Example 139, 4-amino-3-[3-(pyridine-4-ylmethoxy)phenylazo]naphthalene-1-sulfonic acid sodium salt], under setting [1], the negative-log IC50 (pIC50) is 6.22. Still for that read-out and setting: for `CCCCc1ccc(-c2ccc(/N=N/c3cc(S(=O)(=O)O)c4ccccc4c3N)cn2)cc1` [Example 62, 4-amino-3-[6-(4-butylphenyl)pyridine-3-ylazo]naphthalene-1-sulfonic acid sodium salt] the value was 6.07; for `Cc1cccc(-c2ccc(/N=N/c3cc(S(=O)(=O)O)c4ccccc4c3N)cc2)c1` [Example 126, 4-amino-3-(3′-methylbiphenyl-4-ylazo)naphthalene-1-sulfonic acid sodium salt], 6.46. Consider `Nc1c(/N=N/c2ccc(-c3ccc(Cl)cc3)nc2)cc(S(=O)(=O)O)c2ccccc12` [Example 24, 4-amino-3-[6-(4-chlorophenyl)pyridine-3-ylazo]naphthalene-1-sulfonic acid sodium salt], for which the negative-log IC50 (pIC50) under setting [1] was 6.27.

With `Nc1c(/N=N/c2ccc(-c3ccccc3-c3ccccc3)nc2)cc(S(=O)(=O)O)c2ccccc12` [Example 12, 4-amino-3-(6-biphenyl-2-ylpyridine-3-ylazo)naphthalene-1-sulfonic acid sodium salt], the pIC50 under setting [1] was 6.94.

For `Nc1c(/N=N/c2ccc(C(=O)c3ccccc3)cc2)cc(S(=O)(=O)O)c2ccccc12` [Example 131, 4-amino-3-(4-benzoylphenylazo)naphthalene-1-sulfonic acid sodium salt], under setting [1], the negative-log IC50 (pIC50) is 6.62.

As to `Nc1c(/N=N/c2ccc(-c3ccccc3Cl)nc2)cc(S(=O)(=O)O)c2ccccc12` [Example 22, 4-amino-3-[6-(2-chlorophenyl)pyridine-3-ylazo]naphthalene-1-sulfonic acid sodium salt], the pIC50 under setting [1] was 6.71. `Nc1c(/N=N/c2ccc(-c3cccc4c3sc3ccccc34)nc2)cc(S(=O)(=O)O)c2ccccc12` [Example 31, 4-amino-3-(6-dibenzothiophene-4-ylpyridine-3-ylazo)naphthalene-1-sulfonic acid sodium salt]: the pIC50 under setting [1] is 5.99. Take `Nc1c(/N=N/c2ccc(-c3ccccc3C(F)(F)F)nc2)cc(S(=O)(=O)O)c2ccccc12` [Example 20, 4-amino-3-[6-(2-trifluoromethylphenyl)pyridine-3-ylazo]naphthalene-1-sulfonic acid sodium salt]: the pIC50 under setting [1] is 6.77. On the same count and under the same terms, the result for `Nc1c(/N=N/c2c(Br)cc(-c3cccnc3)cc2Br)cc(S(=O)(=O)O)c2ccccc12` [Example 128, 4-amino-3-(2,6-dibromo-4-pyridine-3-ylphenylazo)naphthalene-1-sulfonic acid sodium salt] reads 6.89; that for `Nc1c(/N=N/c2cccc(Cl)c2)cc(S(=O)(=O)O)c2ccccc12` [Example 99, 4-amino-3-(3-chlorophenylazo)naphthalene-1-sulfonic acid sodium salt], 5.86. Take `Nc1c(/N=N/c2ccc(-c3ccccc3OCCCNC(=O)c3cccnc3Cl)nc2)cc(S(=O)(=O)O)c2ccccc12` [Example 69, 4-amino-3-[6-(2-{3-[(2-chloropyridine-3-carbonyl)amino]propoxy}phenyl)pyridine-3-ylazo]naphthalene-1-sulfonic acid sodium salt]: the negative logarithm of the IC50 (pIC50) under setting [1] was 7.05.

Take `Nc1c(/N=N/c2ccc(F)cc2F)cc(S(=O)(=O)O)c2ccccc12` [Example 116, 4-amino-3-(2,4-difluorophenylazo)naphthalene-1-sulfonic acid sodium salt]: under setting [1], the negative logarithm of the IC50 (pIC50) was 5.91. As for `Nc1c(/N=N/c2ccccc2Cl)cc(S(=O)(=O)O)c2ccccc12` [Example 98, 4-amino-3-(2-chlorophenylazo)naphthalene-1-sulfonic acid sodium salt], the negative logarithm of the IC50 (pIC50) under setting [1] was 6.23. In the case of `Nc1c(/N=N/c2cccc([N+](=O)[O-])c2)cc(S(=O)(=O)O)c2ccccc12` [Example 96, 4-amino-3-(3-nitrophenylazo)naphthalene-1-sulfonic acid sodium salt], the pIC50 under setting [1] is 5.79. For the compound `N#Cc1cccc(/N=N/c2cc(S(=O)(=O)O)c3ccccc3c2N)c1` [Example 106, 4-amino-3-(3-cyanophenylazo)naphthalene-1-sulfonic acid sodium salt], the negative-log IC50 (pIC50) under setting [1] was 5.65.

As to `Nc1c(/N=N/c2ccc(NC(=O)c3cccs3)cc2)cc(S(=O)(=O)O)c2ccccc12` [Example 97, 4-amino-3-[4-[(2-thienylcarbonyl)amino]phenylazo]-1-naphthalenesulfonic acid sodium salt], the pIC50 under setting [1] was 6.09.

Turning to `CSc1ccccc1/N=N/c1cc(S(=O)(=O)O)c2ccccc2c1N` [Example 133, 4-amino-3-(2-methylsulfanylphenylazo)naphthalene-1-sulfonic acid sodium salt], the negative logarithm of the IC50 (pIC50) under setting [1] is 6.29. The same measure, in the same setting: for `Nc1c(/N=N/c2ccc(-c3ccccc3OCCCO)nc2)cc(S(=O)(=O)O)c2ccccc12` [Example 66, 4-amino-3-{6-[2-(3-hydroxypropoxy)phenyl]pyridine-3-ylazo}naphthalene-1-sulfonic acid sodium salt] the value was 6.63. `Nc1ccc(-c2cccc3c2sc2ccccc23)nc1` [Example 30, sodium salt]: for the setting “compounds of Comparative Examples, determined in the same manner as the Examples”, the negative-log IC50 (pIC50) is less than 4.00. Regarding `CCCOc1cc(F)ccc1-c1ccc(/N=N/c2cc(S(=O)(=O)O)c3ccccc3c2N)cn1` [Example 57, 4-amino-3-[6-(4-fluoro-2-propoxyphenyl)pyridine-3-ylazo]naphthalene-1-sulfonic acid sodium salt], the pIC50 under setting [1] was 5.86. On to `CCOC(=O)c1ccc(/N=N/c2cc(S(=O)(=O)O)c3ccccc3c2N)cc1` [Example 103, ethyl 4-(1-amino-4-sulfonaphthalene-2-ylazo)benzoate sodium salt], for which the pIC50 under setting [1] is 6.05. Consider `COC(=O)c1sccc1/N=N/c1cc(S(=O)(=O)O)c2ccccc2c1N` [Example 146, methyl 3-(1-amino-4-sulfonaphthalene-2-ylazo)thiophene-2-carboxylate sodium salt], for which the pIC50 under setting [1] is 5.89.

`Cc1ccc(F)cc1-c1ccc(/N=N/c2cc(S(=O)(=O)O)c3ccccc3c2N)cn1` [Example 58, 4-amino-3-[6-(5-fluoro-2-methylphenyl)pyridine-3-ylazo]naphthalene-1-sulfonic acid sodium salt]: the negative logarithm of the IC50 (pIC50) under setting [1] is 6.49.
